Holding throughout (format): in vivo, Wistar rats
The test system of assay [1] is NGF mRNA. Description: NGF mRNA in rat cortex, hippocampus and spinal cord after i.p. treatment (RT-PCR, ratio to S12). As to conditions: 3 and 10 mg/kg i.p., 6 and 24 hours after treatment. The protocol:
(§1) Male adult Wistar rats (10-12 weeks) are killed by decapitation. The brains are removed, rapidly dissected with nuclease-free instruments on an ice-cold metal-plate, transferred to sterile cryotubes, and immediately shock-frozen by immersions in liquid nitrogen. Tissues are stored at −80° C. until further processing. Samples for the measurement of neurotrophin protein levels are prepared according to Lüesse et al., Exp. Brain Res. 1998: 119, 1-8. The homogenates are centrifuged at 12,500 g for 60 min, and the supernatants are used for NGF, BDNF and neurotrophin-3 (NT-3) quantification using specific ELISA assays.
(§2) Total cellular RNA is isolated according to the TRIZOL®-protocol (Gibco BRL, Eggenstein) as described by Lüesse et al. (see above).
(§3) Before being subjected to RT-PCR, the RNA extracts are supplemented with internal control RNA and optimized as described in detail by Heese K. et al., 1998, Neural Notes III, 21-23. Total RNA of each sample is first reverse-transcribed into cDNA which in turn is subjected to PCR amplification using primers specific for NGF and BDNF as described by Heese K et al., (see above).
(§4) For the quantification of neurotrophin transcripts, the ratios of densitometric scores for NGF or BDNF and S12 PCR products are calculated. Data are means±SEM of three independent experiments, each done in duplicate. N=4 to 6 for each group.

Assay [2] concerns BDNF mRNA. Kind of assay: BDNF mRNA in rat cortex, hippocampus and spinal cord after i.p. treatment (RT-PCR, ratio to S12). As to conditions: 3 and 10 mg/kg i.p., 6 and 24 hours after treatment. The protocol:
as §1, §2, §3, §4

Assay [3] relates to NT-3-protein. Description: NT-3 protein in rat cortex, hippocampus and spinal cord after i.p. treatment (immunoassay). As to conditions: 4 mg/kg i.p. The protocol: as §1
To measure the immunoreactive NGF into the cortex, hippocampus and spinal cord of rats, a two-site ELISA is used (Weskamnp, G. and Otten, U. 1987, J. Neurochem. 48, 1779-1786). Anti-β (2.5S, 7S) NGF and anti-β (2.5S, 7S) NGF-β-gal (clone 27/21) (Boehringer Mannheim) are applied, and the NGF content in the samples is determined by comparison with an NGF standard curve (absorbance measurement at 595 nm using an ELISA reader, Dynatech MR 700). For quantification of BDNF and NT-3 levels, specific immunoassay systems are used according to the manufacturer's (Promega) protocols but modified by Heese, K. and Otten, U., 1998, J. Neurochem. 70, 699-707. Statistical evaluation of results is performed by applying analysis of variance, and the statistical error is the SEM. […]

In the case of `C[C@H](NC[C@H](O)CP(=O)(O)CC1CCCCC1)c1cccc(C(=O)O)c1` [compound A], in assay [1], the “increase of NGF mRNA” value fell in the range of 2.0 to 2.5 fold. For the same compound, the “increase of BDNF mRNA” value in assay [2] was in the range of 2 to 3 fold. Regarding `NCC(CC(=O)O)c1ccc(Cl)cc1` (stereo not drawn) [compound C, β-(aminomethyl)-4-chlorobenze propanoic acid], the “increase of NT-3-protein levels” value in assay [3] was 3 fold.
